Source: patent US20190119635A1, “MODULATION OF T LYMPHOCYTES” (Fate Therapeutics, Inc., priority 2015, published 2019)

Tested on: CD3+ T-cells pre-isolated from human peripheral blood
Experiment: Gene expression panel of CD3+ T-cells treated with dmPGE2 (Affymetrix U133 plus 2.0 GeneChip)
Type: cell-based
Settings: 10 μM dmPGE2, 2 hours at 37° C.; genes ATF3, CREM, GEM, CXCL2, MMP9, PLAUR, AREG, BCL2A1, DUSP4, FOS, FOSL2, JUN, MYC, NR4A2, NR4A3, SOCS1, SOCS3, ULBP2; mean of 3 donors; FIG. 1
Method: RNA was extracted from CD3+ T-cells pre-isolated from human peripheral blood (AllCells, Aiameda CA) (n=3 donors) post ex vivo treatment (2 hours at 37° C. in StemSpan-ACF (StemCell Technologies, Vancouver, Canada)) with 10 μM dmPGE2 (Fate therapeutics, San Diego, Calif.) or vehicle control (DMSO).
Following cell treatments, levels mRNA were quantitated from PicoPure isolated mRNA (Life Technologies, Carlsbad, Calif.) using Affymetrix GeneChip technology. Affymetrix U133 plus 2.0 GeneChip hybridization of all samples was performed in accordance with the manufacturer's recommendations (Affymetrix, Santa Clara, Calif.), involving roughly 200 ng of total RNA and Message Amp II (Life Technologies, Carlsbad, Calif.) standard two round amplification protocols. Probe intensities were normalized according to a log scale robust multi-array analysis (RMA) method (Affymetrix Santa Clara, Calif.). A parametric paired t-test (Benjamini-Hochberg false discovery rate <0.05, adjusted p-value/q-value <0.05, and fold change > or <2 fold) detected probes with significant changes due to the treatment with dmPGE2 and dexamethasone.
The probe intensities were converted into linear fold changes of relative expression levels of mRNA by comparison of dmPGE2 and dexamethasone treated CD3+ T-cells in comparison to the vehicle treated control samples. […]

Structure (SMILES): CCCCC(C)(C)[C@H](O)/C=C/[C@H]1[C@H](O)CC(=O)[C@@H]1C/C=C\CCCC(=O)O [dmPGE2, 16,16-dimethyl PGE2]
- statistically significant increase in expression (linear fold change of mRNA vs vehicle control): at least 2 fold
